In patent publication US9034904B2, “Forms of dexlansoprazole and processes for the preparation thereof” (APOTEX PHARMACHEM INC., priority 2009, dated 2015):

Assay: Chemical stability on storage (chemical purity by HPLC)
Assay type: physicochemical
Details: for reduction in chemical purity by HPLC (area %): following 1 week of storage at 40° C. and 75% relative humidity (40° C./75% RH)

Row | reduction in chemical purity by HPLC (area %) | chemical stability compared to other known forms of dexlansoprazole such as the amorphous form (qualitative statement, storage conditions not given) | Compound
1 | 8.5 area % | – | Cc1c(OCC(F)(F)F)ccnc1C[S@@+]([O-])c1nc2ccccc2[nH]1 [amorphous form, (R)-2-[[[3-methyl-4-(2,2,2-trifluoroethoxy)-2-pyridinyl]methyl]sulfinyl]-1H-benzimidazole, reference compound]
2 | – | increased chemical stability | Cc1c(OCC(F)(F)F)ccnc1C[S@@+]([O-])c1nc2ccccc2[nH]1
3 | essentially unchanged | – | CC(O)CO.Cc1c(OCC(F)(F)F)ccnc1C[S@@+]([O-])c1nc2ccccc2[nH]1.O
